Test results: US20250262222A1, “HETEROCYCLIC COMPOUNDS, COMPOSITIONS THEREOF, AND METHODS OF TREATMENT THEREWITH” (BeiGene Switzerland GmbH, priority 2022, published 2025)
pIC50: −log10 of the molar value.

Assays:
[1] = test system: ERK1/2 phosphorylation in SW1990 tumors; assay: SW1990 PD studies; type: in vivo, Female NCG mice; conditions: oral administration
Method: Female NCG mice were subcutaneously implanted with 5×10^6 SW1990 cells per 200 μL PBS/matrigel in the right flank. After inoculation, when tumors reached a mean volume of approximately 350-450 mm^3 in size, mice were randomized into treatment groups. Randomized mice would receive a single dose of vehicle consisting of 0.5% MC or test compounds at various dose (e.g. 30, 50, or 100 mg/kg) by oral administration. Plasma was collected at 0.5, 2, 4, and 7 hours, and tumor was collected at 7 hours after dosing to determine exposure levels. Tumor fragments were snap frozen in homogenization tubes with liquid nitrogen and homogenized with T-PER Tissue Protein Extraction Buffer with protease and phosphatase inhibitors added fresh before use. Tumor lysates were then analyzed for ERK1/2 phosphorylation.

[2] = test system: pERK1/2(THR202/TYR204) level in AsPC-1 cell line; assay: KRAS G12D pERK assay; type: cell-based; conditions: Homo sapiens, ASPC1, 2 h, AsPC-1 cells, 2 h compound treatment, HTRF
Procedure, shortened: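 AsPC-1 (KRAS G12D) cells, 30000/well, seeded overnight, then treated 2 h with a 10-point series at 0 to 10 μM final. Lysate pERK1/2 (Thr202/Tyr204) detected by HTRF after overnight antibody incubation at room temperature; IC50 from percent inhibition versus log concentration.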

[3] = Mouse and rat PK study; type: in vivo, male CD-1 mice or SD-JVC rats; conditions: compared to dibasic G12D inhibitors (e.g., Example 17)
Method: The pharmacokinetics of compounds were evaluated in male CD-1 mice or SD-JVC rats via intravenous and oral administration. For intravenous administration study, test compounds were dissolved in DMA:30% Solutol HS 15(w/v): Saline (20:20:60, by volume) and injected with a 1 mg/kg dose via tail vein. For oral administration study, test compounds were dissolved in 0.5% MC or PEG400/Phosal 50 PG/EtOH (30/60/10, by volume) and administrated to mice at 10 mg/kg or 30 mg/kg by gavage. Animals will be grouped and treated according to body weight. At the time points after dosing (5 (IV only), 15, and 30 min and 1, 2, 4, 8 and 24 h after administration), Rat blood samples will be collected from JVC, Mice will be anesthetized by isoflurane and blood samples will be collected from orbital bleeding. Blood samples will be collected into 1.5 mL EDTA.K2 coated EP tube. Approximately 50 μL blood (Mouse) and 150 μL blood (Rat) were collected at each time point and placed on ice, then centrifuge at 5600 rpm 7 min at 4° C. to obtain plasma. Plasma will be transferred into new tube and stored at −20° C. or dry ice temporary. The samples will be stored at −80° C. until ex vivo PK assay.
Plasma concentrations were determined via the following sample processing method and measurement conditions. An aliquot of 10 μL sample was added with 200 μL IS (Terfenadine, 5 ng/mL) in ACN. […]

[4] = Gastrointestinal accumulation and toxicity, mono-basic vs dibasic G12D inhibitors (method not described); type: in vivo; conditions: compared to dibasic G12D inhibitors (e.g., Example 17)

With `Cc1cc(N)cc(-c2nc3c4c(nc(OCC56COC(C5)C6)nc4c2F)N2C[C@H]4CC[C@H](N4)[C@H]2CCO3)c1C(F)(F)F` [Example 27, 3-((6aR,7S,10R)-13-((2-oxabicyclo[2.1.1]hexan-4-yl)methoxy)-1-fluoro-5,6,6a,7,8,9,10,11-octahydro-4-oxa-3,11a,12,14,15-pentaaza-7,10-methanocyclohepta[4,5]cyclo-octa[1,2,3-de]naphthalen-2-yl)-5-methyl-4-(trifluoromethyl)aniline] the oral pharmacodynamic effects [1] was “enhanced oral pharmacodynamic effects” and the pIC50 [2] was 6.69.
With `Nc1cc(Cl)c(C(F)(F)F)c(-c2nc3c4c(nc(OCC56COC(C5)C6)nc4c2F)N2C[C@H]4CC[C@H](N4)C2CCO3)c1` (stereo partly drawn) [Example 23, 3-((7S,10R)-13-((2-oxabicyclo[2.1.1]hexan-4-yl)methoxy)-1-fluoro-5,6,6a,7,8,9,10,11-octahydro-4-oxa-3,11a,12,14,15-pentaaza-7,10-methanocyclohepta[4,5]cycloocta[1,2,3-de]naphthalen-2-yl)-5-chloro-4-(trifluoromethyl)aniline] the oral exposure [3] was “enhanced oral exposure”, the pIC50 [2] was 6.94 and the gastrointestinal accumulation [4] was “reduced gastrointestinal accumulation”. For the same molecule, the toxicity [4] was “reduced toxicity”.
For `Nc1cc(Cl)c(C(F)(F)F)c(-c2nc3c4c(nc(OCC56CCC(C5)OC6)nc4c2F)N2C[C@H]4CC[C@H](N4)[C@H]2CCO3)c1` [Example 41, 3-((6aR,7S,10R)-13-((2-oxabicyclo[2.2.1]heptan-4-yl)methoxy)-1-fluoro-5,6,6a,7,8,9,10,11-octahydro-4-oxa-3,11a,12,14,15-pentaaza-7,10-methanocyclohepta[4,5]cyclo-octa[1,2,3-de]naphthalen-2-yl)-5-chloro-4-(trifluoromethyl)aniline], the oral pharmacodynamic effects [1] was “enhanced oral pharmacodynamic effects” and the pIC50 [2] was 6.95.
For `Nc1cc(Cl)c(C(F)(F)F)c(-c2nc3c4c(nc(OCC56COC(C(F)F)(C5)C6)nc4c2F)N2C[C@H]4CC[C@H](N4)[C@H]2CCO3)c1` [Example 35, 3-chloro-5-((6aR,7S,10R)-13-((1-(difluoromethyl)-2-oxabicyclo[2.1.1]hexan-4-yl)methoxy)-1-fluoro-5,6,6a,7,8,9,10,11-octahydro-4-oxa-3,11a,12,14,15-pentaaza-7,10-methanocyclohepta[4,5]cyclo-octa[1,2,3-de]naphthalen-2-yl)-4-(trifluoromethyl)aniline], the oral pharmacodynamic effects [1] was “enhanced oral pharmacodynamic effects” and the pIC50 [2] was 7.21.
For `Nc1cc(Cl)c(C(F)(F)F)c(-c2nc3c4c(nc(OCC56CCC(CC5)OC6)nc4c2F)N2C[C@H]4CC[C@H](N4)[C@H]2CCO3)c1` [Example 40, 3-((6aR,7S,10R)-13-((2-oxabicyclo[2.2.2]octan-4-yl)methoxy)-1-fluoro-5,6,6a,7,8,9,10,11-octahydro-4-oxa-3,11a,12,14,15-pentaaza-7,10-methanocyclohepta[4,5]cyclo-octa[1,2,3-de]naphthalen-2-yl)-5-chloro-4-(trifluoromethyl)aniline], the oral pharmacodynamic effects [1] was “enhanced oral pharmacodynamic effects” and the pIC50 [2] was 6.52.
In the case of `Nc1cc(Cl)c(C(F)(F)F)c(-c2nc3c4c(nc(OCC5(C(F)F)COC5)nc4c2F)N2C[C@H]4CC[C@H](N4)[C@H]2CCO3)c1` [Example 32, 3-chloro-5-((6aR,7S,10R)-13-((3-(difluoromethyl)oxetan-3-yl)methoxy)-1-fluoro-5,6,6a,7,8,9,10,11-octahydro-4-oxa-3,11a,12,14,15-pentaaza-7,10-methanocyclohepta[4,5]cyclo-octa[1,2,3-de]naphthalen-2-yl)-4-(trifluoromethyl)aniline], the oral pharmacodynamic effects [1] was “enhanced oral pharmacodynamic effects” and the pIC50 [2] was 6.93.
